Measurements published in patent publication US10081631B2, “2-(1H-indazol-3-yl)-1H-imidazo[4,5-C]pyridine and therapeutic uses thereof” (Samumed, LLC, priority 2014, dated 2018).

Legend:
[1] = tested on: primary human fibroblasts derived from IPF patients (LL29 cells); assay: Inhibition of fibrosis: TGF-β1-treated primary human fibroblasts from IPF patients (LL29), αSMA staining; type: cell-based; settings: Fibroblast, 96 h, TGF-β1 20 ng/mL, 4 days, % αSMA-positive cells
Method in brief: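 […] (0.1% DMSO) on LL29 cells in F12 with 1% FBS, with TGF-β1 (20 ng/mL) added 1 h after plating; 4 days at 37 °C. SYTOX-positive dead cells were excluded and the % αSMA-positive cells was imaged, normalized to TGF-β1/DMSO wells, triplicates; EC50 by non-linear regression.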

[2] = tested on: Wnt activity (Sp5-Luc reporter, SW480 colon carcinoma cells); assay: Screening assay for Wnt activity: Sp5-Luc reporter gene assay in SW480 cells; type: cell-based; settings: Homo sapiens, 42 h incubation, luminescence
Method in brief: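 IC50 values come from variable-slope four-parameter fits of luciferase signal normalized to DMSO wells. Stable Sp5-Luc reporter SW480 colon carcinoma cells were exposed to compounds in a 3-fold dilution series (source plates from 10 mM stock) for forty-two hours at 37 °C.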

Work on `CN(C)c1cncc(-c2ccc3[nH]nc(-c4nc5c(N6CCCCC6)nccc5[nH]4)c3c2)c1` [Compound 163, N,N-Dimethyl-5-(3-(4-(piperidin-1-yl)-1H-imidazo[4,5-c]pyridin-2-yl)-1H-indazol-5-yl)pyridin-3-amine] yielded an EC50 [1] of 1550 nM and an IC50 [2] of 3 nM.

In the case of `CC(C)Nc1cncc(-c2ccc3[nH]nc(-c4nc5c(-c6ccoc6)nccc5[nH]4)c3c2)c1` [Compound 272, 5-(3-(4-(Furan-3-yl)-1H-imidazo[4,5-c]pyridin-2-yl)-1H-indazol-5-yl)-N-isopropylpyridin-3-amine], the EC50 [1] is reported as 9 nM and the IC50 [2] is reported as < 1 nM.

`Cc1ccc(-c2nccc3[nH]c(-c4n[nH]c5ccc(-c6cncc(CN7CCCCC7)c6)cc45)nc23)s1` [Compound 353, 4-(5-Methylthiophen-2-yl)-2-(5-(5-(piperidin-1-ylmethyl)pyridin-3-yl)-1H-indazol-3-yl)-1H-imidazo[4,5-c]pyridine] showed an EC50 [1] of 9 nM and an IC50 [2] of 844 nM.

`Fc1cccc(-c2nccc3[nH]c(-c4n[nH]c5ccc(-c6ccncc6)cc45)nc23)c1` [Compound 1784, 4-(3-Fluorophenyl)-2-(5-(pyridin-4-yl)-1H-indazol-3-yl)-1H-imidazo[4,5-c]pyridine] was tested, and the EC50 [1] was 9990 nM and the IC50 [2] was > 10000 nM.

With `Cn1cc(-c2ccc3[nH]nc(-c4nc5c(-c6cccc(F)c6)nccc5[nH]4)c3c2)cn1` [Compound 1772, 4-(3-Fluorophenyl)-2-(5-(1-methyl-1H-pyrazol-4-yl)-1H-indazol-3-yl)-1H-imidazo[4,5-c]pyridine] the EC50 [1] was 9990 nM and the IC50 [2] was 11 nM.

In the case of `c1cncc(-c2ccc3[nH]nc(-c4nc5c(-c6cccnc6)nccc5[nH]4)c3c2)c1` [Compound 82, 4-(Pyridin-3-yl)-2-(5-(pyridin-3-yl)-1H-indazol-3-yl)-1H-imidazo[4,5-c]pyridine], the EC50 [1] is reported as 9 nM and the IC50 [2] is reported as 8 nM.

`CN1CCN(c2nccc3[nH]c(-c4n[nH]c5ccc(-c6cncc(CN7CCCCC7)c6)cc45)nc23)CC1` [Compound 223, 4-(4-Methylpiperazin-1-yl)-2-(5-(5-(piperidin-1-ylmethyl)pyridin-3-yl)-1H-indazol-3-yl)-1H-imidazo[4,5-c]pyridine] was tested, and the EC50 [1] was 1110 nM and the IC50 [2] was 172 nM.

With `CC(C)CC(=O)Nc1cncc(-c2ccc3[nH]nc(-c4nc5c(-c6ccc(F)s6)nccc5[nH]4)c3c2)c1` [Compound 314, N-(5-(3-(4-(5-Fluorothiophen-2-yl)-1H-imidazo[4,5-c]pyridin-2-yl)-1H-indazol-5-yl)pyridin-3-yl)-3-methylbutanamide] the EC50 [1] was 665 nM and the IC50 [2] was 44.7 nM.

`Nc1cncc(-c2ccc3[nH]nc(-c4nc5c(-c6ccccc6F)nccc5[nH]4)c3c2)c1` [Compound 55, 5-(3-(4-(2-Fluorophenyl)-1H-imidazo[4,5-c]pyridin-2-yl)-1H-indazol-5-yl)pyridin-3-amine] was tested, and the EC50 [1] was 17 nM and the IC50 [2] was 4.1 nM.

`FC1(F)CCN(Cc2cncc(-c3ccc4[nH]nc(-c5nc6c(-c7cccs7)nccc6[nH]5)c4c3)c2)C1` [Compound 311, 2-(5-(5-((3,3-Difluoropyrrolidin-1-yl)methyl)pyridin-3-yl)-1H-indazol-3-yl)-4-(thiophen-2-yl)-1H-imidazo[4,5-c]pyridine] showed an EC50 [1] of 83 nM and an IC50 [2] of 320 nM.

In the case of `O=C(Nc1cncc(-c2ccc3[nH]nc(-c4nc5c(-c6ccc(F)s6)nccc5[nH]4)c3c2)c1)C1CCC1` [Compound 332, N-(5-(3-(4-(5-Fluorothiophen-2-yl)-1H-imidazo[4,5-c]pyridin-2-yl)-1H-indazol-5-yl)pyridin-3-yl)cyclobutanecarboxamide], the EC50 [1] is reported as 363 nM and the IC50 [2] is reported as 32.6 nM.

Compound `O=C(Nc1cncc(-c2ccc3[nH]nc(-c4nc5c(-c6ccccn6)nccc5[nH]4)c3c2)c1)C1CCC1` [Compound 150, N-(5-(3-(4-(Pyridin-2-yl)-1H-imidazo[4,5-c]pyridin-2-yl)-1H-indazol-5-yl)pyridin-3-yl)cyclobutanecarboxamide] has an EC50 [1] of 1520 nM and an IC50 [2] of 51.4 nM.

`CS(=O)(=O)NCc1cc(F)cc(-c2nccc3[nH]c(-c4n[nH]c5ccc(-c6cncc(NC(=O)Cc7ccccc7)c6)cc45)nc23)c1` [Compound 400, N-(5-(3-(4-(3-Fluoro-5-(methylsulfonamidomethyl)phenyl)-1H-imidazo[4,5-c]pyridin-2-yl)-1H-indazol-5-yl)pyridin-3-yl)-2-phenylacetamide] was tested, and the EC50 [1] was 9 nM and the IC50 [2] was > 10000 nM.

With `Fc1cccc(-c2nccc3[nH]c(-c4n[nH]c5ccc(-c6ccccn6)cc45)nc23)c1` [Compound 1785, 4-(3-Fluorophenyl)-2-(5-(pyridin-2-yl)-1H-indazol-3-yl)-1H-imidazo[4,5-c]pyridine] the EC50 [1] was 9 nM and the IC50 [2] was 633 nM.

`O=C(Nc1cncc(-c2ccc3[nH]nc(-c4nc5c(-c6ccsc6)nccc5[nH]4)c3c2)c1)c1ccccc1` [Compound 245, N-(5-(3-(4-(Thiophen-3-yl)-1H-imidazo[4,5-c]pyridin-2-yl)-1H-indazol-5-yl)pyridin-3-yl)benzamide] gave an EC50 [1] of 17 nM and an IC50 [2] of 40 nM.

With `Cc1cn(-c2nccc3[nH]c(-c4n[nH]c5ccc(-c6cncc(NC(=O)C7CCC7)c6)cc45)nc23)cn1` [Compound 202, N-(5-(3-(4-(4-Methyl-1H-imidazol-1-yl)-1H-imidazo[4,5-c]pyridin-2-yl)-1H-indazol-5-yl)pyridin-3-yl)cyclobutanecarboxamide] the EC50 [1] was 13 nM and the IC50 [2] was < 1 nM.

`Fc1cccc(-c2nccc3[nH]c(-c4n[nH]c5ccc(-c6cnccn6)cc45)nc23)c1` [Compound 1786, 4-(3-Fluorophenyl)-2-(5-(pyrazin-2-yl)-1H-indazol-3-yl)-1H-imidazo[4,5-c]pyridine] gave an EC50 [1] of 9 nM and an IC50 [2] of 35 nM.

With `CCC(=O)Nc1cncc(-c2ccc3[nH]nc(-c4nc5c(-c6cccc(F)c6)nccc5[nH]4)c3c2)c1` [Compound 1, N-(5-(3-(4-(3-Fluorophenyl)-1H-imidazo[4,5-c]pyridin-2-yl)-1H-indazol-5-yl)pyridin-3-yl)propionamide] the EC50 [1] was 20 nM and the IC50 [2] was 1 nM.

With `CC(C)(C)C(=O)Nc1cncc(-c2ccc3[nH]nc(-c4nc5c(-c6ccsc6)nccc5[nH]4)c3c2)c1` [Compound 242, N-(5-(3-(4-(Thiophen-3-yl)-1H-imidazo[4,5-c]pyridin-2-yl)-1H-indazol-5-yl)pyridin-3-yl)pivalamide] the EC50 [1] was 1180 nM and the IC50 [2] was 27.4 nM.

With `CCCC(=O)Nc1cncc(-c2ccc3[nH]nc(-c4nc5c(-c6cc(F)cc(CNS(C)(=O)=O)c6)nccc5[nH]4)c3c2)c1` [Compound 407, N-(5-(3-(4-(3-Fluoro-5-(methylsulfonamidomethyl)phenyl)-1H-imidazo[4,5-c]pyridin-2-yl)-1H-indazol-5-yl)pyridin-3-yl)butyramide] the EC50 [1] was 19 nM and the IC50 [2] was 24 nM.

In the case of `CN(C)c1cncc(-c2ccc3[nH]nc(-c4nc5c(-c6cccs6)nccc5[nH]4)c3c2)c1` [Compound 293, N,N-Dimethyl-5-(3-(4-(thiophen-2-yl)-1H-imidazo[4,5-c]pyridin-2-yl)-1H-indazol-5-yl)pyridin-3-amine], the EC50 [1] is reported as 36 nM and the IC50 [2] is reported as 9 nM.

`CN(C)c1cncc(-c2ccc3[nH]nc(-c4nc5c(-c6cccc(F)c6)nccc5[nH]4)c3c2)c1` [Compound 7, 5-(3-(4-(3-Fluorophenyl)-1H-imidazo[4,5-c]pyridin-2-yl)-1H-indazol-5-yl)-N,N-dimethylpyridin-3-amine] showed an EC50 [1] of 9 nM and an IC50 [2] of 4 nM.
